Molecules are shown by their SMILES.

The first assay deals with T1, human A2a receptor (Homo sapiens, UniProt P29274).
T1 construct: purchased Perkin-Elmer RBHA2AM400UA; host or cells: HEK293 cells, used as a membrane preparation
T1 sequence (P29274 whole entry): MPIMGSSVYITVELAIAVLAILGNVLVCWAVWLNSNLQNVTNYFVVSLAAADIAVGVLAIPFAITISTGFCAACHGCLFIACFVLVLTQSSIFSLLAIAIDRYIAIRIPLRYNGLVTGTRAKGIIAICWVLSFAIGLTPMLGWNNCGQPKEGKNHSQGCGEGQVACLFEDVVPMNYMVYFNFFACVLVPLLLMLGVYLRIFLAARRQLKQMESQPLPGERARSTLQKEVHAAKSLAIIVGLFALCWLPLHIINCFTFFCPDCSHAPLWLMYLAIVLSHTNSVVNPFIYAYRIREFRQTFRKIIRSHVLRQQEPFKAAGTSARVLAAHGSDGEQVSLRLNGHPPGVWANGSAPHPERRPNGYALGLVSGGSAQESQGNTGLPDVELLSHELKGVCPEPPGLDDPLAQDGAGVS
Briefly: A2a receptor competition binding assay (Scintillation Proximity). Conditions: A2a Ki, membranes from HEK293 cells expressing human A2a receptor; 0.5 nM tritiated ligand; Cheng-Prusoff. An outline of the steps: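 Ki values were obtained with the Cheng-Prusoff equation from competition curves against 0.5 nM tritiated antagonist, scintillation proximity counting after 1 h room-temperature incubation. Receptor came from HEK293 membranes pretreated with adenosine deaminase; compound final range 3000–0.15 nM, buffer Ca/Mg-free PBS with 10 mM MgCl2.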
(SPA uses beads or plates that emit light when radiolabelled molecules are held near them.)
Consider `COc1cccc2c1nc(N)n1cc(C(=O)N3C4CCC3CC4)nc21` [Ex-218, (5-amino-7-methoxyimidazo[1,2-c]quinazolin-2-yl)((1s,4s)-7-azabicyclo[2.2.1]heptan-7-yl)methanone], for which the Ki amounted to 0.0061 µM.

Staying with this assay, now noted: membranes from HEK293 cells expressing human A2a receptor; 0.5 nM tritiated ligand; Cheng-Prusoff; read-out: A2a Ki.
On to `Nc1nc2c(F)cccc2c2nc(C(=O)NCc3cccc(N4CCN(c5ccc(F)cc5F)CC4)c3)cn12` [Ex-252, 5-amino-N-(3-(4-(2,4-difluorophenyl)piperazin-1-yl)benzyl)-7-fluoroimidazo[1,2-c]quinazoline-2-carboxamide], for which the Ki stood at 0.0072 µM. Still for that read-out and setting: in the case of `Nc1nc2c(F)cccc2c2nc(CN3CCc4cc(-c5ccc(F)c(F)c5)ccc4C3)cn12` [Ex-130, 2-((6-(3,4-difluorophenyl)-3,4-dihydroisoquinolin-2(1H)-yl)methyl)-7-fluoroimidazo[1,2-c]quinazolin-5-amine] it was 0.046 µM.

With `COc1cccc2c1nc(N)n1cc(Cn3cc(COC(C)=O)nn3)nc21` [Ex-99, (1-((5-amino-7-methoxyimidazo[1,2-c]quinazolin-2-yl)methyl)-1H-1,2,3-triazol-4-yl)methyl acetate], the inhibition constant (Ki) was determined as 0.0112 µM. `Nc1nc2c(F)cccc2c2nc(Cc3ccccc3CN3CCN(c4nc5ccccc5o4)CC3)cn12`: the Ki was 0.02 µM. Still for that read-out and setting: in the case of `Nc1nc2c(F)cccc2c2nc(C(=O)N3CCc4cc(-c5cncnc5)ccc4C3)cn12` [Ex-287, (5-amino-7-fluoroimidazo[1,2-c]quinazolin-2-yl)(6-(pyrimidin-5-yl)-3,4-dihydroisoquinolin-2(1H)-yl)methanone] it was 0.035 µM. The same measure, in the same setting: in the case of `Nc1nc2c(F)cccc2c2nc(Cc3cccc4c3CCN(Cc3ccccn3)C4)cn12` [Ex-58, 7-fluoro-2-((2-(pyridin-2-ylmethyl)-1,2,3,4-tetrahydroisoquinolin-5-yl)methyl)imidazo[1,2-c]quinazolin-5-amine] it was 0.0099 µM; in that of `COc1cccc2c1nc(N)n1cc(C(=O)N3CCCC(C)CC3)nc21` (stereo not shown) [Ex-176, (5-amino-7-methoxyimidazo[1,2-c]quinazolin-2-yl)(4-methylazepan-1-yl)methanone], 0.01 µM.

With `COc1cccc2c1nc(N)n1cc(Cc3ccc(F)cc3F)nc21` [Ex-18, 2-(2,4-difluorobenzyl)-7-methoxyimidazo[1,2-c]quinazolin-5-amine], the Ki amounted to 0.001 µM. Same read-out and setting: in the case of `Nc1nc2c(F)cccc2c2nc(Cc3cccc4c3OCCN4C(=O)Cc3ccccn3)cn12` [Ex-92, 1-(8-((5-amino-7-fluoroimidazo[1,2-c]quinazolin-2-yl)methyl)-2,3-dihydro-4H-benzo[b][1,4]oxazin-4-yl)-2-(pyridin-2-yl)ethan-1-one] it was 0.013 µM; in that of `Nc1nc2c(F)cccc2c2nc(C(=O)NCC(c3cccnc3)N3CCOCC3)cn12` (stereo not shown) [Ex-166, 5-amino-7-fluoro-N-(2-morpholino-2-(pyridin-3-yl)ethyl)imidazo[1,2-c]quinazoline-2-carboxamide], 1.4 µM.

On to `Nc1nc2c(F)cccc2c2nc(CN3CCN(C(=O)Cc4ccccn4)c4ccccc43)cn12` [Ex-136, 1-(4-((5-amino-7-fluoroimidazo[1,2-c]quinazolin-2-yl)methyl)-3,4-dihydroquinoxalin-1(2H)-yl)-2-(pyridin-2-yl)ethan-1-one], for which the Ki was 0.012 µM. Still for that read-out and setting: for `CC(=O)N1CCCC2(CCN(C(=O)c3cn4c(N)nc5c(F)cccc5c4n3)CC2)C1` [Ex-278, 1-(9-(5-amino-7-fluoroimidazo[1,2-c]quinazoline-2-carbonyl)-2,9-diazaspiro[5.5]undecan-2-yl)ethan-1-one] the value was 0.061 µM; for `COc1cccc2c1nc(N)n1cc(C(=O)N3CCC(C)CC3)nc21` [Ex-193, (5-amino-7-methoxyimidazo[1,2-c]quinazolin-2-yl)(4-methylpiperidin-1-yl)methanone], 0.013 µM; for `COc1cccc2c1nc(N)n1cc(C(=O)c3ccccc3)nc21` [Ex-103, (5-amino-7-methoxyimidazo[1,2-c]quinazolin-2-yl)(phenyl)methanone], 0.0264 µM.

On to `Nc1nc2c(F)cccc2c2nc(CC3CCN(CC4CC4)CC3)cn12` [Ex-305, 2-((1-(cyclopropyl-methyl)piperidin-4-yl)methyl)-7-fluoro-imidazo[1,2-c]quina-zolin-5-amine], for which the Ki was 0.22 µM. As for `COc1cccc2c1nc(N)n1cc(C(=O)N3C[C@@H]4[C@@H]5CC[C@@H](C5)[C@@H]4C3)nc21` [Ex-236, (5-amino-7-methoxyimidazo[1,2-c]quinazolin-2-yl)((3aR,4R,7S,7aS)-octahydro-2H-4,7-methanoisoindol-2-yl)methanone], the Ki is 0.0064 µM. In the case of `Nc1nc2c(F)cccc2c2nc(Cn3cc(-c4cc(C(F)(F)F)cc(C(F)(F)F)c4)nn3)cn12` [Ex-94, 2-((4-(3,5-bis(trifluoromethyl)phenyl)-1H-1,2,3-triazol-1-yl)methyl)-7-fluoroimidazo[1,2-c]quinazolin-5-amine], the Ki is 0.15 µM.

Take `C[C@@H](NC(=O)c1cn2c(N)nc3c(F)cccc3c2n1)c1ccccc1` [Ex-297, (R)-5-amino-7-fluoro-N-(1-phenylethyl)imidazo[1,2-c]quinazoline-2-carboxamide]: the Ki stood at 0.0023 µM. Regarding `COc1cccc2c1nc(N)n1cc(CNCc3cccnc3)nc21` [Ex-145, 7-methoxy-2-(((pyridin-3-ylmethyl)amino)methyl)imidazo [1,2-c]quinazolin-5-amine], the inhibition constant Ki amounted to 0.028 µM.

Consider `COc1cccc2c1nc(N)n1cc(C(=O)N3CCCC4(CCC4)C3)nc21` [Ex-200, (5-amino-7-methoxyimidazo[1,2-c]quinazolin-2-yl)(6-azaspiro[3.5]nonan-6-yl)methanone], for which the Ki was 0.0046 µM. On to `COc1cccc2c1nc(N)n1cc(C(=O)N3CCCC(C)C3)nc21` (stereo not shown) [Ex-170, (5-amino-7-methoxyimidazo[1,2-c]quinazolin-2-yl)(3-methylpiperidin-1-yl)methanone], for which the Ki was found to be 0.0115 µM. Same read-out and setting: for `Nc1nc2c(F)cccc2c2nc(-c3ccccc3)cn12` [Ex-106, 7-fluoro-2-phenylimidazo[1,2-c]quinazolin-5-amine] the value was 0.0071 µM; for `CCN1CCN(Cc2cn3c(N)nc4c(F)cccc4c3n2)CC1` [Ex-112, 2-((4-ethylpiperazin-1-yl)methyl)-7-fluoroimidazo[1,2-c]quinazolin-5-amine], 0.52 µM. Still for that read-out and setting: in the case of `COc1cccc2c1nc(N)n1cc(C(=O)N3CCC(=O)C3)nc21` [Ex-238, 1-(5-amino-7-methoxyimidazo[1,2-c]quinazoline-2-carbonyl)pyrrolidin-3-one] it was 0.17 µM.

For the compound `Nc1nc2c(F)cccc2c2nc(CC3CCN(C(=O)c4ccc(F)cn4)CC3)cn12` [Ex-323, (4-((5-amino-7-fluoroimidazo[1,2-c]quinazolin-2-yl)-methyl)piperidin-1-yl)(5-fluoropyridin-2-yl)methanone], the Ki was 0.017 µM. Consider `Nc1nc2c(F)cccc2c2nc(C(=O)N3CCc4cc(CC(=O)Nc5ccccn5)ccc4C3)cn12` [Ex-283, 2-(2-(5-amino-7-fluoroimidazo[1,2-c]quinazoline-2-carbonyl)-1,2,3,4-tetrahydroisoquinolin-6-yl)-N-(pyridin-2-yl)acetamide], for which the inhibition constant (Ki) came to 0.021 µM. On the same count and under the same terms, for `Nc1nc2c(F)cccc2c2nc(C(=O)N3CCC4(CCN(Cc5ccc(F)cc5)C4)C3)cn12` (stereo not shown) [Ex-273, (5-amino-7-fluoroimidazo[1,2-c]quinazolin-2-yl)(7-(4-fluorobenzyl)-2,7-diazaspiro[4.4]nonan-2-yl)methanone] the value was 0.11 µM. With `COc1cccc2c1nc(N)n1cc(C(=O)N3CCC4(CCCC4)CC3)nc21` [Ex-202, (5-amino-7-methoxyimidazo[1,2-c]quinazolin-2-yl)(8-azaspiro[4.5]decan-8-yl)methanone], the inhibition constant (Ki) stood at 0.0052 µM.

Regarding `Nc1nc2c(F)cccc2c2nc(Cc3ccnc(N4CCN(c5nc6ccccc6o5)CC4)c3)cn12` [Ex-63, 2-((2-(4-(benzo[d]oxazol-2-yl)piperazin-1-yl)pyridin-4-yl)methyl)-7-fluoroimidazo[1,2-c]quinazolin-5-amine], the Ki came out at 0.102 µM. Regarding `Nc1nc2c(F)cccc2c2nc(C(=O)N3CCN4CCCC[C@@H]4C3)cn12` [Ex-284, (R)-(5-amino-7-fluoroimidazo[1,2-c]quinazolin-2-yl)(octahydro-2H-pyrido[1,2-a]pyrazin-2-yl)methanone], the Ki is 0.033 µM. Same read-out and setting: in the case of `Nc1nc2c(F)cccc2c2nc(Cc3ccc(-c4cnccn4)cc3)cn12` [Ex-82, 7-fluoro-2-(4-(pyrazin-2-yl)benzyl)imidazo[1,2-c]quinazolin-5-amine] it was 0.027 µM. Same read-out and setting: for `Nc1nc2c(F)cccc2c2nc(C(=O)NCc3ccccc3CN3CCOCC3)cn12` [Ex-255, 5-amino-7-fluoro-N-(2-(morpholinomethyl)benzyl) imidazo[1,2-c]quinazoline-2-carboxamide] the value was 0.0061 µM. On the same count and under the same terms, in the case of `COCCOc1ccc(N2CCN(c3cccc(CNC(=O)c4cn5c(N)nc6c(F)cccc6c5n4)c3)CC2)cc1` [Ex-254, 5-amino-7-fluoro-N-(3-(4-(4-(2-methoxyethoxy)phenyl)piperazin-1-yl)benzyl)imidazo[1,2-c]quinazoline-2-carboxamide] it was 0.0051 µM; in that of `COc1cccc2c1nc(N)n1cc(C(=O)N3CCCC(=O)CC3)nc21` [Ex-179, 1-(5-amino-7-methoxyimidazo[1,2-c]quinazoline-2-carbonyl)azepan-4-one], 0.031 µM.

Regarding `Nc1nc2c(-c3cnoc3)cccc2c2nc(Cc3ccccc3)cn12` [Ex-156, 2-benzyl-7-(isoxazol-4-yl)imidazo[1,2-c]quinazolin-5-amine], the Ki was 0.028 µM. For `COc1cccc2c1nc(N)n1cc(C(=O)N3CCC(C)(C)CC3)nc21` [Ex-207, (5-amino-7-methoxyimidazo[1,2-c]quinazolin-2-yl)(4,4-dimethylpiperidin-1-yl)methanone], the Ki was found to be 0.0021 µM.

Usually Ki stands for a measure of affinity in units of concentration, obtained from inhibition or displacement.
